Source: patent publication US9957230B2, “Synergistic compositions” (Cadila Healthcare Limited, priority 2013, dated 2018)

Experiments:
Swiss albino mice = assay: Triglyceride lowering effects of various salts in Swiss albino mice; type: in vivo; details: dose equivalent to 1 mg/kg free acid; for Serum triglycerides (mg/dl) Day 0: Day 0 (pretreatment); for Serum triglycerides (mg/dl) Day 0 / Serum triglycerides (mg/dl) Day 6: male Swiss albino mice; for Serum triglycerides (mg/dl) Day 6: Day 6, one hr after dose; for % Change Vs control: serum triglycerides vs vehicle control after 6 days; for % Change Day 6 vs Day 0: serum triglycerides
Method: Comparative Efficacy Study of (Triglyceride Lowering Effects) of Various Salts of Compound (Ia) in Swiss Albino Mice.
The in-vivo efficacy of compound (I) was evaluated in Swiss albino mice. Anti-dyslipidemic drugs have been reported to lower circulating levels of triglyceride in Swiss albino mice through their effect on genes involved in the peroxisomal fatty acid beta oxidation via PPAR alpha agonism. Therefore, this species is preferred for evaluation of their efficacy in lowering circulating triglyceride (TG) levels.
In this experiment, six to eight week old male Swiss albino mice were issued and kept for acclimatization. Near the end of the acclimatization period, animals judged to be suitable for testing were bled under light ether anesthesia and serum samples were analyzed for Serum triglyceride levels.
Test compound was formulated at specified doses in vehicle (10% Polyethylene glycol (PEG) 400+90% of 0.5% Sodium Carboxy methyl cellulose). The animals were dosed orally, once daily in the morning during six days, starting from next day of grouping with vehicle or test compound. The animals were weighed prior to dosing, and based on these weights; the volume of administration was calculated. The volume of formulation administered to each mouse was 10 ml/kg body weight.
On day 6 one hr after the dose administration, blood (0.25 ml) was collected from retro-orbital sinus of the anaesthetized animals. Serum was separated by centrifugation. Serum was analyzed for triglyceride levels. Analysis for serum triglyceride levels was performed using a Spectrophotometer and commercially available kit. Calculations for determination of % change and % reduction in serum TG levels were performed using MS Excels sheet.

db/db mice = assay: Oral glucose tolerance test in db/db mice (studies I and II); type: in vivo; details: Table 12, Compound (Ia) 0.1 mg/kg, Metformin 150 mg/kg p.o.
Description: 8. […] 8. The treatment was given oral gavages once daily for 14 days.
The OGTT procedure followed is as given below—

[1] = Table 3, oral once daily 6 days
[2] = Table 5, oral once daily 6 days

Compound	Serum triglycerides (mg/dl) Day 0 (Swiss albino mice; Table 7, po once daily 6 days) [mg/dL]	Serum triglycerides (mg/dl) Day 6 (Swiss albino mice; Table 7, po once daily 6 days) [mg/dL]	% Change Vs control (Swiss albino mice; Table 7, po) [%]	% Change Day 6 vs Day 0 (Swiss albino mice; Table 7, po once daily 6 days) [%]	Serum triglycerides (mg/dl) Day 0 (Swiss albino mice; [2]) [mg/dL]	Serum triglycerides (mg/dl) Day 6 (Swiss albino mice; [2]) [mg/dL]	% Change Vs control (Swiss albino mice; Table 5, oral) [%]	% Change Day 6 vs Day 0 (Swiss albino mice; [2]) [%]	also measured
CCO[C@@H](Cc1ccc(OCCn2c(C)ccc2-c2ccc(SC)cc2)cc1)C(=O)[O-].C[N+](C)(C)CCO [Choline salt of Formula (I), Choline Salt (i.e 2-Hydroxy-N,N,N-trimethylethanaminium hydroxide or choline hydroxide) of (S) 2-Ethoxy-3-(4-{2-[2-methyl-5-(4-methylthiophenyl)-pyrrol-1-ylethoxyphenylpropionic acid]	110.9 ± 7.7	47.6 ± 3.4	−51.0 ± 4.8	−56.0 ± 4.3	–	–	–	–	–
(S) 2-Ethoxy-3-(4-{2-[2-methyl-5-(4-methylthiophenyl)-pyrrol-1-yl]-ethoxy}-phenyl)-propionic acid Calcium Salt [Calcium Salt of Formula (I)]	–	–	–	–	–	–	–	–	Serum triglycerides (mg/dl) Day 0 (Swiss albino mice; [1]): 119.2 ± 11.1 mg/dL; Serum triglycerides (mg/dl) Day 6 (Swiss albino mice; [1]): 38.8 ± 3.2 mg/dL; % Change Vs control (Swiss albino mice; Table 3, oral): −66.4 ± 2.5%; % Change Day 6 vs Day 0 (Swiss albino mice; [1]): −66.8 ± 2.5%
CCO[C@@H](Cc1ccc(OCCn2c(C)ccc2-c2ccc(SC)cc2)cc1)C(=O)O.OCCN1CCCC1 [Epolamine salt of Formula (I)]	110.5 ± 7.5	39.6 ± 3.8	−60.1 ± 2.6	−64.2 ± 2.3	–	–	–	–	–
(S) 2-Ethoxy-3-(4-{2-[2-methyl-5-(4-methylthiophenyl)-pyrrol-1-yl]-ethoxy}-phenyl)-propionic acid L-Lysine salt [L-lysine salt of Formula (I)]	–	–	–	–	91.2 ± 6.8	48.7 ± 3.3	−48.7 ± 3.6	−45.8 ± 3.8	–
(S) 2-Ethoxy-3-(4-{2-[2-methyl-5-(4-methylthiophenyl)-pyrrol-1-yl]-ethoxy}-phenyl)-propionic acid piperazine salt [Piperazine salt of Formula (I)]	–	–	–	–	91.0 ± 6.5	44.1 ± 1.9	−52.8 ± 3.7	−50.2 ± 4.0	–
(S) 2-Ethoxy-3-(4-{2-[2-methyl-5-(4-methylthiophenyl)-pyrrol-1-yl]-ethoxy}-phenyl)-propionic acid Zinc Salt [Zinc Salt of Formula (I)]	–	–	–	–	–	–	–	–	Serum triglycerides (mg/dl) Day 0 (Swiss albino mice; [1]): 119.1 ± 7.6 mg/dL; Serum triglycerides (mg/dl) Day 6 (Swiss albino mice; [1]): 68.6 ± 7.5 mg/dL; % Change Vs control (Swiss albino mice; Table 3, oral): −42.0 ± 4.2%; % Change Day 6 vs Day 0 (Swiss albino mice; [1]): −42.7 ± 4.2%
CCO[C@@H](Cc1ccc(OCCn2c(C)ccc2-c2ccc(SC)cc2)cc1)C(=O)O.c1ccc(CCNCc2ccccc2)cc1 [Benethamine salt of Formula (I), (S) 2-Ethoxy-3-(4-{2-[2-methyl-5-(4-methylthiophenyl)-pyrrol-1-yl]-ethoxy}-phenyl)-propionic acid Benethamine salt]	–	–	–	–	91.6 ± 6.4	56.0 ± 4.9	−41.6 ± 5.4	−38.3 ± 5.7	–
(S) 2-Ethoxy-3-(4-{2-[2-methyl-5-(4-methylthiophenyl)-pyrrol-1-yl]-ethoxy}-phenyl)-propionic acid L-arginine salt [L-arginine salt of Formula (I)]	–	–	–	–	91.6 ± 7.9	37.2 ± 2.1	−60.2 ± 3.9	−58.0 ± 4.2	–
CCO[C@@H](Cc1ccc(OCCn2c(C)ccc2-c2ccc(SC)cc2)cc1)C(=O)O.c1c[nH]cn1 [Imidazole salt of Formula (I), (S) 2-Ethoxy-3-(4-{2-[2-methyl-5-(4-methylthiophenyl)-pyrrol-1-yl]-ethoxy}-phenyl)-propionic acid imidazole salt]	110.5 ± 7.2	43.5 ± 2.5	−55.3 ± 3.6	−59.8 ± 3.2	–	–	–	–	–
(S) 2-Ethoxy-3-(4-{2-[2-methyl-5-(4-methylthiophenyl)-pyrrol-1-yl]-ethoxy}-phenyl)-propionic acid benzylamine salt [Benzylamine salt of Formula (I)]	–	–	–	–	91.1 ± 10.8	36.5 ± 4.0	−60.2 ± 5.8	−57.9 ± 6.2	–
CCO[C@@H](Cc1ccc(OCCn2c(C)ccc2-c2ccc(SC)cc2)cc1)C(=O)[O-].[K+] [Potassium Salt of formula (I), (S) 2-Ethoxy-3-(4-{2-[2-methyl-5-(4-methylthiophenyl)-pyrrol-1-yl]-ethoxy}-phenyl)-propionic acid potassium salt]	–	–	–	–	–	–	–	–	Serum triglycerides (mg/dl) Day 0 (Swiss albino mice; [1]): 119.0 ± 9.2 mg/dL; Serum triglycerides (mg/dl) Day 6 (Swiss albino mice; [1]): 44.8 ± 4.6 mg/dL; % Change Vs control (Swiss albino mice; Table 3, oral): −60.2 ± 6.0%; % Change Day 6 vs Day 0 (Swiss albino mice; [1]): −60.7 ± 6.0%
CCO[C@@H](Cc1ccc(OCCn2c(C)ccc2-c2ccc(SC)cc2)cc1)C(=O)[O-].[Na+] [Sodium Salt of Formula (I), (S) 2-Ethoxy-3-(4-{2-[2-methyl-5-(4-methylthiophenyl)-pyrrol-1-yl]-ethoxy}-phenyl)-propionic acid sodium salt]	–	–	–	–	–	–	–	–	Serum triglycerides (mg/dl) Day 0 (Swiss albino mice; [1]): 119.4 ± 11.9 mg/dL; Serum triglycerides (mg/dl) Day 6 (Swiss albino mice; [1]): 41.6 ± 1.8 mg/dL; % Change Vs control (Swiss albino mice; Table 3, oral): −63.1 ± 3.6%; % Change Day 6 vs Day 0 (Swiss albino mice; [1]): −63.5 ± 3.6%
(S) 2-Ethoxy-3-(4-{2-[2-methyl-5-(4-methylthiophenyl)-pyrrol-1-yl]-ethoxy}-phenyl)-propionic acid Dibenzylamine salt [Dibenzylamine salt of Formula (I)]	–	–	–	–	91.0 ± 6.7	42.1 ± 2.9	−54.4 ± 5.8	−51.8 ± 6.1	–
(S) 2-Ethoxy-3-(4-{2-[2-methyl-5-(4-methylthiophenyl)-pyrrol-1-yl]-ethoxy}-phenyl)-propionic acid Meglumine salt [Maglumine salt of Formula (I)]	110.6 ± 9.1	32.4 ± 1.5	−66.5 ± 2.5	−70.0 ± 2.2	–	–	–	–	–
CCO[C@@H](Cc1ccc(OCCn2c(C)ccc2-c2ccc(SC)cc2)cc1)C(=O)O.NCCO [Ethanolamine salt of Formula (I)]	110.5 ± 7.5	42.5 ± 3.6	−56.9 ± 3.6	−61.3 ± 3.2	–	–	–	–	–
CCO[C@@H](Cc1ccc(OCCn2c(C)ccc2-c2ccc(SC)cc2)cc1)C(=O)O.OCCN(CCO)CCO [Triethanolamine salt of Formula (I)]	110.3 ± 7.5	33.0 ± 2.6	−65.3 ± 4.4	−68.9 ± 3.9	–	–	–	–	–
(S) 2-Ethoxy-3-(4-{2-[2-methyl-5-(4-methylthiophenyl)-pyrrol-1-yl]-ethoxy}-phenyl)-propionic acid Tromethamine salt [Tromethamine salt of Formula (I)]	–	–	–	–	91.2 ± 7.8	47.9 ± 4.9	−46.9 ± 8.5	−43.9 ± 9.0	–
CN(C)C(=N)N=C(N)N [Metformin, 1,1-Dimethylbiguanidine, reference compound]	–	–	–	–	–	–	–	–	% improvement in AUC glucose vs control (db/db mice; OGTT after 14 days of treatment): 20.4%; AUC Glucose (db/db mice; OGTT day 14, fasting, glucose load 2 gm/kg): 45255.9 mg·min/dL
Benzenepropanoic acid, α-ethoxy-4-[2-[2-methyl-5-[4-(methylthio) phenyl]-1H -pyrrol-1-yl] ethoxy]-, magnesium salt [Compound (Ia)]	111.1 ± 8.4	36.9 ± 2.9	−61.5 ± 4.6	−65.5 ± 4.2	91.4 ± 8.8	37.4 ± 3.2	−60.5 ± 3.5	−58.3 ± 3.7	Serum triglycerides (mg/dl) Day 0 (Swiss albino mice; [1]): 117.7 ± 13.8 mg/dL; Serum triglycerides (mg/dl) Day 6 (Swiss albino mice; [1]): 38.2 ± 4.1 mg/dL; % Change Vs control (Swiss albino mice; Table 3, oral): −66.1 ± 4.2%; % Change Day 6 vs Day 0 (Swiss albino mice; [1]): −66.5 ± 4.1%
